Consider two molecules from US5637591A, “Antimicrobial and anticollagenase activity of phenazine-5, 10-dioxide and derivatives” (Fuji ImmunoPharmaceuticals Corp., priority 1995, dated 1997).

Data set [1] deals with purified collagenase from P. gingivalis. As to the kind of experiment: anti-collagenase activity, 3H-collagen hydrolysis. The class given is biochemical. The following applies: for % Inhibition of collagenase: 24 h at 25° C. As to the method:
Collagenase activity in the presence of the preferred compound 2-aminophenazine-5,10-dioxide and in the presence of Tetracycline were measured by incubating ^3 H-collagen with purified collagenase from P. gingivalis using increasing drag concentrations. After 24 h at 25° C., unhydrolyzed collagen fibers were removed from the mixture by centrifugation, and the specific activity of ^3 H in the supernatant quantified as a measure of hydrolyzed collagen. Percent inhibition was determined by subtracting the value in the presence of test compound from the control value, then dividing this quantity by the control value [(control-compound)/control×100].

The format of data set [2] is in vivo. The following applies: for Other Signs of Toxicity: mouse, in vivo, ip. From the text:
The potential for toxic side effects following systemic administration similar to the method used in the efficacy study was investigated by administering the compound 2-methylphenazine-5,10-dioxide to mice either in single or multiple intraperitoneal (IP) injections.

The format of data set [3] is in vivo. The settings on record: for Other Signs of Toxicity: in vivo. As for the experimental part:
Toxicity was also evaluated in rodents via intravenous (IV) and oral (PO) routes of administration across a range of dose levels.

Like-named read-outs stand apart in the source and are kept apart here.

Take `Nc1ccc2c(c1)[n+]([O-])c1ccccc1[n+]2[O-]` [2-aminophenazine-5,10-dioxide]: the “% Inhibition of collagenase” value was found to be 11.6% in data set [1] (1 μg/ml), 47.3% in data set [1] (10 μg/ml), 57.3% in data set [1] (50 μg/ml) and 81.7% in data set [1] (100 μg/ml). Also, the “anti-collagenase IC50” value in data set [1] (estimated from Table 5) is “more than 10 μg/ml”.
With `Cc1ccc2c(c1)[n+]([O-])c1ccccc1[n+]2[O-]` [2-methylphenazine-5,10-dioxide], the Deaths in data set [2] (mice, 15 mg/kg IP, 2.5% CD, 17 injections) stood at 0; in data set [2] (mice, 30 mg/kg IP, DMSO, 15 injections), 0; in data set [2] (mice, 60 mg/kg IP, 10% CD, 1 injection) it was 0; in data set [3] (Mice, 5 mg/kg IV, 25% Cremaphor, 1 administration) it was 0; in data set [3] (Mice, 5 mg/kg IV, 30% Encapsin CD, 1 administration), 0; in data set [3] (Mice, 5 mg/kg IV, 100% DMSO, 1 administration), 0. The Deaths is recorded as 0 in data set [3] (Mice, 30 mg/kg IV, 10% Cremaphor, 1 administration); 0 in data set [3] (Mice, 40 mg/kg IV, 25% Cremaphor, 1 administration); 0 in data set [3] (Mice, 50 mg/kg IV, 30% Encapsin CD, 1 administration); 0 in data set [3] (Mice, 800 mg/kg PO, 100% Cremaphor, 1 administration); 1/2 in data set [3] (Mice, 1000 mg/kg PO, 100% Cremaphor, 1 administration); 0 in data set [3] (Rats, 5 mg/kg IV, 20% Cremaphor, 1 administration). Further, the Deaths came to 0 in data set [3] (Rats, 10 mg/kg IV, 25% Encapsin CD/10% DMSO, 1 administration); 0 in data set [3] (Rats, 20 mg/kg IV, 30% Encapsin CD, 1 administration); 0 in data set [3] (Rats, 50 mg/kg PO, 2% Brij 35/Water, 1 administration); 0 in data set [3] (Rats, 50 mg/kg PO, 10% Brij 35/Mineral Oil, 1 administration); 0 in data set [3] (Rats, 50 mg/kg PO, 10% Brij 35/Water, 1 administration); 0 in data set [3] (Rats, 50 mg/kg PO, Water, 1 administration). The Deaths is 0 in data set [3] (Rats, 80 mg/kg PO, 10% Cremaphor, 1 administration); 0 in data set [3] (Rats, 100 mg/kg PO, 2% Brij 35, 1 administration); 0 in data set [3] (Rats, 100 mg/kg PO, 10% Arlacel 83/Corn Oil, 1 administration); 0 in data set [3] (Rats, 100 mg/kg PO, 100% PEG400, 1 administration); 0 in data set [3] (Rats, 100 mg/kg PO, 110% Encapsin CD, 1 administration); 0 in data set [3] (Rats, 200 mg/kg PO, 100% Cremaphor, 1 administration). Also, in data set [2] (mice, IP, at several times the therapeutic dose), the “toxicity” value is listed as “non-toxic”. Also, the “Other Signs of Toxicity” value is on record as “NONE” in data set [2] (15 mg/kg); “NONE” in data set [2] (30 mg/kg); “NONE” in data set [2] (60 mg/kg); “NONE” in data set [3] (mouse, iv, 5 mg/kg); “NONE” in data set [3] (mouse, iv, 30 mg/kg); “NONE” in data set [3] (mouse, iv, 40 mg/kg). In addition, the “Other Signs of Toxicity” value in data set [3] (mouse, iv, 50 mg/kg) was “Abnormal Clin Obs”; in data set [3] (mouse, po, 800 mg/kg), “NONE”; in data set [3] (mouse, po, 1000 mg/kg), “NONE”; in data set [3] (rat, iv, 10 mg/kg) it was “NONE”; in data set [3] (rat, iv, 20 mg/kg), “NONE”; in data set [3] (rat, po, 50 mg/kg), “NONE”. Also, the “Other Signs of Toxicity” value in data set [3] (rat, po, 80 mg/kg) is “NONE”; in data set [3] (rat, po, 100 mg/kg), “NONE”; in data set [3] (rat, po, 200 mg/kg), “NONE”.
